Experimental findings from patent US10941152B2, “Pyrazole compounds as modulators of FSHR and uses thereof” (TOCOPHERX, INC., priority 2014, dated 2021) are described below.

The target in test [1] is T1, follicle-stimulating hormone (FSH) receptor (Rattus norvegicus, UniProt P20395).
T1 construct: endogenous in cells; host or cells: rat granulosa cells
T1 sequence (P20395 18-692): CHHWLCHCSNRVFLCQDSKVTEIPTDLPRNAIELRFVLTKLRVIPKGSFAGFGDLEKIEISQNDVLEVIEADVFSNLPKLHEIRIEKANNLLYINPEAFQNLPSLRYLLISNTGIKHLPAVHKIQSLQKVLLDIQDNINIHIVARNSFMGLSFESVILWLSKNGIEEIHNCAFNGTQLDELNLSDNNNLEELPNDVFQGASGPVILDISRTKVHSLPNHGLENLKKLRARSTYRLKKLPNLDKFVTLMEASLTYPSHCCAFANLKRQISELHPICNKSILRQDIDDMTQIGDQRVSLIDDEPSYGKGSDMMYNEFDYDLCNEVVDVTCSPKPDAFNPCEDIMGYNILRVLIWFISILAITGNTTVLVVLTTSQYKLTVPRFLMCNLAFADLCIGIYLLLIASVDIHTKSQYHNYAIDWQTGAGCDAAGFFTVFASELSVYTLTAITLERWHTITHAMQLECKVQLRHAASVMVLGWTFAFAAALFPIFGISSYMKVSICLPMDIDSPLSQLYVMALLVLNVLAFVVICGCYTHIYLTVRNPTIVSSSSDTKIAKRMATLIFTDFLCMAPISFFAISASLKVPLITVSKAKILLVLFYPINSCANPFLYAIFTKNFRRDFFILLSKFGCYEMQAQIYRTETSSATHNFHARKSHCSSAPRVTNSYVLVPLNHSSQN
Briefly: Rat granulosa EC50 FSH (Assay B). It counts as cell-based. As for the experimental part:
Example 25. Rat granulosa EC50 FSH (Assay B)
The assay was performed pursuant to the teaching of Yanofsky et al. (2006) Allosteric activation of the follicle-stimulating hormone (FSH) receptor by selective, nonpeptide agonists (JBC 281(19): 13226-13233, which is incorporated by reference in the disclosure of the invention).

The target of a further test is T2, FSHR (Homo sapiens, UniProt P23945).
T2 construct: expressed in transfected cells; host or cells: CHO (Cho-FSHR-LUC-1-1-43)
T2 sequence (P23945 18-695): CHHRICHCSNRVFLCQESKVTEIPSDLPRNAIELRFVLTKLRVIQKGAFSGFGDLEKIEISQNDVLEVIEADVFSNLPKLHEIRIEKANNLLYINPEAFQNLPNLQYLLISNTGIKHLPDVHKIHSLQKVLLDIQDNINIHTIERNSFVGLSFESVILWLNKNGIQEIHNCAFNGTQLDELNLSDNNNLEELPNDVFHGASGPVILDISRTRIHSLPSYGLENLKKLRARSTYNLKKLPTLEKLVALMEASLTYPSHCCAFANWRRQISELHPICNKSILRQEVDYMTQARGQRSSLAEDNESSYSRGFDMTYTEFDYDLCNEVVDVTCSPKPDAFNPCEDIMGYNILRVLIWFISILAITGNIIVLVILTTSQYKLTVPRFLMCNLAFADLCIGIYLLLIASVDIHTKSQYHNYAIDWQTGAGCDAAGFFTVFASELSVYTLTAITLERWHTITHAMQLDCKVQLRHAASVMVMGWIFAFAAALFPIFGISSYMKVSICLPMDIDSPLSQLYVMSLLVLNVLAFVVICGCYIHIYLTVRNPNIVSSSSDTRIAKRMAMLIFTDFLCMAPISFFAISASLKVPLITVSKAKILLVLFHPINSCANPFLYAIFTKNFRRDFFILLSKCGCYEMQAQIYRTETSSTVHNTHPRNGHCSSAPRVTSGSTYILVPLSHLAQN
Briefly: EC50 of cyclic AMP production in CHO FSHR cells + EC20 FSH (Assay A). It counts as cell-based. Particulars: cyclic AMP production in CHO FSHR cells + EC20 FSH (0.265 pM), HTRF. As for the experimental part:
Example 24. EC50 of cyclic AMP production in CHO FSHR cells+EC20 FSH (Assay A)
2500 Cho-FSHR-LUC-1-1-43 cells were plated per well in 5 al of phenol red free DMEM/F12+1% FBS. Cells were plated in 384 well, solid white low volume plates (Greiner 784075) by Multidrop. Cells were assayed by adding 100 al of 2×EC20 FSH/IBMX in DMEM/F12+0.1% BSA) by Multidrop to 2 al of test compound stamped in 384 well plates (compounds are diluted 1:50). The final FSH concentration was 0.265 pM, and the final IBMX concentration was 200 μM. The compound plate map was as follows: Column 1: 2 μl of DMSO; Column 2: 2 μl of DMSO; Columns 3-12 and 13-24: 2 μl of test compound, diluted 1:4 in 100% DMSO, or 2 μl of FSH, diluted 1:4 in DMEM/F12+0.1% BSA. The starting concentration for FSH was 50 nM (final concentration was 0.5 nM). Furthermore, Column 23 contained 2 μl of EC100 FSH reference (100×) (diluted in DMEM/F12+0.1% BSA) at a final concentration of 0.5 nM, and Column 24 contained 2 μl of 1 mM AS707664/2 reference compound 2. 5 μl of compound+EC20 FSH mixture were transferred to cell plates (1:2 dilution into 5 μl of cell media) The plates were incubated at 37° C. for 1 h. 10 μl of mixed HTRF (CisBio #62AM4PEC) reagents were added per well and incubated at room temperature for 1 h. The plates were read on Envision using the cAMP HTRF—low volume 384 well protocol. The readout was the calculated fluorescence ratio (665 nm/620 nm). Values given in percent (%) indicate the percental effect (response) at a certain concentration of agonist relative to the maximum response of the FSH standard.

By EC50 is commonly meant the concentration giving half of the maximal effect.

As for `COc1cc2c(cc1-c1ccn(C)n1)-c1c(c(C(=O)N3CCC(O)CC3(C)C)nn1-c1ccsc1)CO2` (centres unmarked) [Compound 57, (4-hydroxy-2,2-dimethylpiperidin-1-yl)(7-methoxy-8-(1-methyl-1H-pyrazol-3-yl)-1-(thiophen-3-yl)-1,4-dihydrochromeno[4,3-c]pyrazol-3-yl)methanone], the figures for the EC50 (in test [1]; at FSHR) were 101 to 500 nM and 10 to 100 nM, respectively.
In the same order, the values of `COc1cc2c(cc1-c1nc[nH]n1)-c1c(c(C(=O)N(C)C(C)(C)C)nn1-c1ccsc1)CO2` [Compound 207, N-tert-butyl-7-methoxy-N-methyl-1-(thiophen-3-yl)-8-(1H-1,2,4-triazol-3-yl)-1,4-dihydrochromeno[4,3-c]pyrazole-3-carboxamide] are 101 to 500 nM and < 10 nM.
Consider `COc1cc2c(cc1-c1cncc(N)c1)-c1c(c(C(=O)N(C)C(C)(C)C)nn1-c1cc(Cl)cc(Cl)c1)CO2` [Compound 20, 8-(5-aminopyridin-3-yl)-N-tert-butyl-1-(3,5-dichlorophenyl)-7-methoxy-N-methyl-1,4-dihydrochromeno[4,3-c]pyrazole-3-carboxamide], for which the EC50 in test [1] is 101 to 500 nM; on FSHR, < 10 nM.
Regarding `COc1cc(Cl)cc(-n2nc(C(=O)N3CCOCC3(C)C)c3c2-c2cc(-c4cnn(CC(=O)O)c4)c(OC)cc2OC3)c1` [Compound 86, 2-(4-(1-(3-chloro-5-methoxyphenyl)-3-(3,3-dimethylmorpholine-4-carbonyl)-7-methoxy-1,4-dihydrochromeno[4,3-c]pyrazol-8-yl)-1H-pyrazol-1-yl)acetic acid], the EC50 in test [1] was 101 to 500 nM; at FSHR it was < 10 nM.
For `COc1cc2c(cc1-c1c(C)nn(CC(=O)O)c1C)-c1c(c(C(=O)N(C)C(C)(C)C)nn1-c1cc(Cl)cc(Cl)c1)CO2` [Compound 137, 2-(4-(3-(tert-butyl(methyl)carbamoyl)-1-(3,5-dichlorophenyl)-7-methoxy-1,4-dihydrochromeno[4,3-c]pyrazol-8-yl)-3,5-dimethyl-1H-pyrazol-1-yl)acetic acid], in that order: 101 to 500 nM and < 10 nM.
For `CNC(=O)c1cc(-c2cc3c(cc2OC)OCc2c(C(=O)N(C)C(C)(C)C)nn(-c4cc(F)cc(F)c4)c2-3)cnc1N` [Compound 100, 8-(6-amino-5-(methylcarbamoyl)pyridin-3-yl)-N-tert-butyl-1-(3,5-difluorophenyl)-7-methoxy-N-methyl-1,4-dihydrochromeno[4,3-c]pyrazole-3-carboxamide], in that order: 10 to 100 nM and < 10 nM.
On to `COc1cc2c(cc1-c1cccc(C(=O)O)c1)-c1c(c(C(=O)N(C)C(C)(C)C)nn1-c1cc(Cl)cc(Cl)c1)CO2` [Compound 179], for which the EC50 in test [1] fell in the range of 101 to 500 nM; at FSHR, 10 to 100 nM.
In the same order, the values of `COc1cc2c(cc1-c1ccn(C)n1)-c1c(c(C(=O)N3CCOCC3(C)C)nn1-c1cc(Cl)cc(Cl)c1)CO2` [Compound 9, (1-(3,5-dichlorophenyl)-7-methoxy-8-(1-methyl-1H-pyrazol-3-yl)-1,4-dihydrochromeno[4,3-c]pyrazol-3-yl)(3,3-dimethylmorpholino)methanone] are 101 to 500 nM and < 10 nM.
In the same order, the values of `COc1cc2c(cc1-c1cnn(CC(O)CO)c1)-c1c(c(C(=O)N(C)C(C)(C)C)nn1-c1cc(Cl)cc(Cl)c1)CO2` (centres unmarked) [Compound 190, N-tert-butyl-1-(3,5-dichlorophenyl)-8-(1-(2,3-dihydroxypropyl)-1H-pyrazol-4-yl)-7-methoxy-N-methyl-1,4-dihydrochromeno[4,3-c]pyrazole-3-carboxamide] are > 500 nM and 10 to 100 nM.
For `COc1cc2c(cc1-c1ccc(N)nc1)-c1c(c(C(=O)N(C)C(C)(C)C)nn1-c1cc(Cl)cc(Cl)c1)CO2` [Compound 16, 8-(6-aminopyridin-3-yl)-N-tert-butyl-1-(3,5-dichlorophenyl)-7-methoxy-N-methyl-1,4-dihydrochromeno[4,3-c]pyrazole-3-carboxamide], in that order: 101 to 500 nM and < 10 nM.
For the compound `COc1cc2c(cc1-c1cc(C(N)=O)ccn1)-c1c(c(C(=O)N(C)C(C)(C)C#N)nn1-c1cc(Cl)cc(Cl)c1)CO2` [Compound 120, 8-(4-carbamoylpyridin-2-yl)-N-(2-cyanopropan-2-yl)-1-(3,5-dichlorophenyl)-7-methoxy-N-methyl-1,4-dihydrochromeno[4,3-c]pyrazole-3-carboxamide], the EC50 was 10 to 100 nM in test [1] and < 10 nM on FSHR.
In the same order, the values of `COc1cc2c(cc1-c1ccn(C)n1)-c1c(c(C(=O)N(C)C(C)(C)C#N)nn1-c1cc(Cl)cc(Cl)c1)CO2` [Compound 132, N-(2-cyanopropan-2-yl)-1-(3,5-dichlorophenyl)-7-methoxy-N-methyl-8-(1-methyl-1H-pyrazol-3-yl)-1,4-dihydrochromeno[4,3-c]pyrazole-3-carboxamide] are 101 to 500 nM and 10 to 100 nM.
With `COc1cc2c(cc1-c1cncc(NC(N)=O)c1)-c1c(c(C(=O)N(C)C(C)(C)C)nn1-c1cc(Cl)cc(Cl)c1)CO2` [Compound 183, N-tert-butyl-1-(3,5-dichlorophenyl)-7-methoxy-N-methyl-8-(5-ureidopyridin-3-yl)-1,4-dihydrochromeno[4,3-c]pyrazole-3-carboxamide], the EC50 in test [1] was 10 to 100 nM; at FSHR, < 10 nM.
In the same order, the values of `COc1cc2c(cc1-c1cnn(CC(=O)N(C)C)c1)-c1c(c(C(=O)N3CCOCC3(C)C)nn1-c1cc(Cl)cc(Cl)c1)CO2` [Compound 92, 2-(4-(1-(3,5-dichlorophenyl)-3-(3,3-dimethylmorpholine-4-carbonyl)-7-methoxy-1,4-dihydrochromeno[4,3-c]pyrazol-8-yl)-1H-pyrazol-1-yl)-N,N-dimethylacetamide] are 10 to 100 nM and < 10 nM.
For `COc1cc2c(cc1-c1cncc(C(N)=O)c1)-c1c(c(C(=O)N(C)C(C)(C)C)nn1-c1cc(F)cc(F)c1)CO2` [Compound 161], in that order: 10 to 100 nM and < 10 nM.
In the same order, the values of `COc1cc(OC)cc(-n2nc(C(=O)N(C)C(C)(C)C)c3c2-c2cc(-c4cc(C(N)=O)c[n+]([O-])c4)c(OC)cc2OC3)c1` [Compound 175] are 10 to 100 nM and < 10 nM.
